These results are taken from patent US20130303533A1, “AZOLOPYRIDINE AND AZOLOPYRIMIDINE COMPOUNDS AND METHODS OF USE THEREOF” (AMBIT BIOSCIENCES CORPORATION, priority 2010, published 2013).

Assay [1] concerns the target T1, JAK3 (Homo sapiens, UniProt P52333).
T1 construct: made in house; host or cells: T7 phage display or HEK-293 cells (alternatives)
T1 sequence (P52333 1-1124): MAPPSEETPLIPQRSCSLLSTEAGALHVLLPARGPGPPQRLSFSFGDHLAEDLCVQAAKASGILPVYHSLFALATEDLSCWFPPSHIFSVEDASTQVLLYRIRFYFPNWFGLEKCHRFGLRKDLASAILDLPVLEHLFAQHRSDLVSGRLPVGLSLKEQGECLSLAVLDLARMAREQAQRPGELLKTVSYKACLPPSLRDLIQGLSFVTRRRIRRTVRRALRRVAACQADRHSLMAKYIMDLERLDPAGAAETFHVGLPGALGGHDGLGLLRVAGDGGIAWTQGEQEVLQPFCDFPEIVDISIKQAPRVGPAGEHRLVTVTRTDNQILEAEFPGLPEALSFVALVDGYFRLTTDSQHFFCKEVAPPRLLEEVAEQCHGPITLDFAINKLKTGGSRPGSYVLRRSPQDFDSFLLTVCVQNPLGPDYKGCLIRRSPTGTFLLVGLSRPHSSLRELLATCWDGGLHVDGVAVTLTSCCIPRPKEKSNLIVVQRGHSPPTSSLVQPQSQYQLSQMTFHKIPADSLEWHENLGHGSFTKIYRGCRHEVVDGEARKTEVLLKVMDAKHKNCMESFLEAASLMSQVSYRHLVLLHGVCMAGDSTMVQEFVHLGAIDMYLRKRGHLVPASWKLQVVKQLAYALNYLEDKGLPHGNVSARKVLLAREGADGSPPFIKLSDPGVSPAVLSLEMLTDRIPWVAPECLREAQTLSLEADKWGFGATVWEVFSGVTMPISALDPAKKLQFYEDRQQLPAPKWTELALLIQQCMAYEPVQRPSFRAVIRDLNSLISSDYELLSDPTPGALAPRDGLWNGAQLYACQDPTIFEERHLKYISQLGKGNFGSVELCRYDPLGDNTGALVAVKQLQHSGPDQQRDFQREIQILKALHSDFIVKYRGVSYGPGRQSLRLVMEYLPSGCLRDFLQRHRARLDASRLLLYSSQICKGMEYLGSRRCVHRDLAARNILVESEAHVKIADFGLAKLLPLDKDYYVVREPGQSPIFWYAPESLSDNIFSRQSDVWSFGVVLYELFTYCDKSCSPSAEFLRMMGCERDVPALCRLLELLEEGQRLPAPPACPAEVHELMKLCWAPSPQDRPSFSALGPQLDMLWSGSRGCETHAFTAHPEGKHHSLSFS
The assay can be described thus: Competition binding assay to determine binding constants (Kd), JAK3.

The target of assay [2] is T2, JAK2 (Homo sapiens, UniProt O60674).
T2 construct: made in house; host or cells: T7 phage display or HEK-293 cells (alternatives)
The assay can be described thus: Competition binding assay to determine binding constants (Kd), JAK2.

In assay [3] the target is T3, TYK2 (Homo sapiens, UniProt P29597).
T3 construct: made in house; host or cells: T7 phage display or HEK-293 cells (alternatives)
The assay can be described thus: Competition binding assay to determine binding constants (Kd), TYK2.

The subject of assay [4] is GM-CSFR/JAK2/STAT5 pathway. The assay can be described thus: CSTF-1 cell-based reporter assay. The following applies: Homo sapiens; csTF-1 cells, GM-CSF at 2 ng/mL, 4 hours, beta-lactamase reporter; read-out: Cell Assay: CS TF-1 reporter assay IC50. In general terms: In a reporter assay the amount or activity of a reporter protein is the signal.

Where only a bound is given, the exact number is not on record here.

T3 sequence (P29597 whole entry): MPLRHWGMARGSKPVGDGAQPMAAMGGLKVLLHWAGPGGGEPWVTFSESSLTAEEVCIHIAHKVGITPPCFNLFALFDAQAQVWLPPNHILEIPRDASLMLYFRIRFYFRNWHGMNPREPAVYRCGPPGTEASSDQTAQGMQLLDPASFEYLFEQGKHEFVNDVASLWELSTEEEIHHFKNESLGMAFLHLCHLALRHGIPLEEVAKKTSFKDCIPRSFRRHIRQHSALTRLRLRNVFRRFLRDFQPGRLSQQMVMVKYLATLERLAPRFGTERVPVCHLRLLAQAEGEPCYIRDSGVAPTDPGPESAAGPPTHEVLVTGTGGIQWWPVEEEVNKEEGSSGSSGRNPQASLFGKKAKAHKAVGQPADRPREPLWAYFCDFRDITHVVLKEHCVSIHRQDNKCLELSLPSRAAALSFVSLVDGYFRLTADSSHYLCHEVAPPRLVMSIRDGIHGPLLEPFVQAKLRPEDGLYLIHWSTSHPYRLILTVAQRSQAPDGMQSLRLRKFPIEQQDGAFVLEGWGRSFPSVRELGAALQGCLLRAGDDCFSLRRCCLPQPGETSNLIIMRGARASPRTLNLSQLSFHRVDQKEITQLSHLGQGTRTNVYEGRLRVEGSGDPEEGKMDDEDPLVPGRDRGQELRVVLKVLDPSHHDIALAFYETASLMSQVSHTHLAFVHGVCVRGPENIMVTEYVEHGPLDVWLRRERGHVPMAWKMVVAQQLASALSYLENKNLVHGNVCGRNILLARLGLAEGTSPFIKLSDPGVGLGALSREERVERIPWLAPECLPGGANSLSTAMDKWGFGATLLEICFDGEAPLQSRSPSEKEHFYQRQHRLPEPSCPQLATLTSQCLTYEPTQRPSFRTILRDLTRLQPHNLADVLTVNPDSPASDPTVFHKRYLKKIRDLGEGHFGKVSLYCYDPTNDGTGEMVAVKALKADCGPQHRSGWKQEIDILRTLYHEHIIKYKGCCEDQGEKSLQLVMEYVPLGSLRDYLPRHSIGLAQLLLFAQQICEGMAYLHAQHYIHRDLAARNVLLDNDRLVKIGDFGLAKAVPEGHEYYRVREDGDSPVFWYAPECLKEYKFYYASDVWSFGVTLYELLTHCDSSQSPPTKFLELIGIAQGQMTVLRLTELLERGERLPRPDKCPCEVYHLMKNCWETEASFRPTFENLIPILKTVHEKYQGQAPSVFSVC
T2 sequence (O60674 whole entry): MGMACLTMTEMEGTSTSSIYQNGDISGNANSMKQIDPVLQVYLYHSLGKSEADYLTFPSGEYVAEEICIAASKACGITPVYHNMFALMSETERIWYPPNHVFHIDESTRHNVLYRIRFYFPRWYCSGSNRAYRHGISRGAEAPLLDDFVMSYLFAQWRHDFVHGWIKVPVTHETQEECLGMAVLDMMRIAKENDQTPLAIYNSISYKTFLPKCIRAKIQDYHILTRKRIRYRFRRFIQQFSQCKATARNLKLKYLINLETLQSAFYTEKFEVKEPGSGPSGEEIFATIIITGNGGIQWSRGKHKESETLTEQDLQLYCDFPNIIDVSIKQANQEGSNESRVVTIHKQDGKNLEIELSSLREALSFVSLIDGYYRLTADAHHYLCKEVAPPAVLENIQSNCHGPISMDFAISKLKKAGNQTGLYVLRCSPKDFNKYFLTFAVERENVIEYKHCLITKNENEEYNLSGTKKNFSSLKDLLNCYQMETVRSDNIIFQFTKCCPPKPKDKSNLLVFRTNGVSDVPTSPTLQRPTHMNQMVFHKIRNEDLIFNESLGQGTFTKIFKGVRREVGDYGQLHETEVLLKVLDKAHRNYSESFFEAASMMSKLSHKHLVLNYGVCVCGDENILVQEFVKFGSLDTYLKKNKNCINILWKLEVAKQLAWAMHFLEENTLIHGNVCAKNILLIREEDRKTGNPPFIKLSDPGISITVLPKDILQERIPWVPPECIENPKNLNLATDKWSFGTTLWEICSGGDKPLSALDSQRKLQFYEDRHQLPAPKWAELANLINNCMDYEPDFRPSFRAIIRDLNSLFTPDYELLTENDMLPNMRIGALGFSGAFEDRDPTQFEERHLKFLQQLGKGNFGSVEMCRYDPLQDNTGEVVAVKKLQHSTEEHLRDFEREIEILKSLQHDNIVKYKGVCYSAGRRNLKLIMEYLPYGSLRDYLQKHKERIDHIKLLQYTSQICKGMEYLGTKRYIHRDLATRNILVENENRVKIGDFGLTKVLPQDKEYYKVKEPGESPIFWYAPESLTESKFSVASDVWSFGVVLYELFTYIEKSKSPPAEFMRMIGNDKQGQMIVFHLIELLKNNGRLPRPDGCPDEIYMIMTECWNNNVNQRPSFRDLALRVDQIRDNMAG

`CSc1nc2nc(C(F)(F)c3ccc(F)cc3)nc(Nc3cc(C)[nH]n3)c2s1` [Example 35, 5-(difluoro(4-fluorophenyl)methyl)-N-(5-methyl-1H-pyrazol-3-yl)-2-(methylthio)thiazolo[4,5-d]pyrimidin-7-amine]: the values for the Kd in assay [1], in assay [2] and in assay [3] were 10 to 100 nM, 1 to 10 nM and at most 10 nM, respectively. In addition, the IC50 (usually the concentration needed to halve the response being measured) in assay [4] was in the range of 100 to 500 nM.

Consider `Cc1cc(Nc2nc(C(F)(F)c3ccc(F)cc3)nc3nc(N4CCCC4)sc23)n[nH]1` [Example 36, 5-(difluoro(4-fluorophenyl)methyl)-N-(5-methyl-1H-pyrazol-3-yl)-2-(pyrrolidin-1-yl)thiazolo[4,5-d]pyrimidin-7-amine], for which the equilibrium dissociation constant (Kd) (commonly the free concentration of one partner at which half of the binding sites on the other are occupied at equilibrium, for simple one-to-one binding) was 10 to 100 nM in assay [1], at most 1 nM in assay [2] and at most 10 nM in assay [3]. Also, the IC50 in assay [4] lay in the range of 100 to 500 nM.

For the compound `Cc1cc(Nc2nc(C(F)(F)c3ccc(F)cc3)nc3nc(N4CCOCC4)sc23)n[nH]1` [Example 37, 5-(difluoro(4-fluorophenyl)methyl)-N-(5-methyl-1H-pyrazol-3-yl)-2-morpholinothiazolo[4,5-d]pyrimidin-7-amine], the Kd was at most 10 nM in assay [1], at most 1 nM in assay [2] and at most 10 nM in assay [3]. Besides, the IC50 in assay [4] was in the range of 100 to 500 nM.

As to `Cc1cc(Nc2nc(C(F)(F)c3ccc(F)cc3)nc3nc(N4CCN(C)CC4)sc23)n[nH]1` [Example 38, 5-(difluoro(4-fluorophenyl)methyl)-N-(5-methyl-1H-pyrazol-3-yl)-2-(4-methylpiperazin-1-yl)thiazolo[4,5-d]pyrimidin-7-amine], the Kd in assay [1] is at most 10 nM; in assay [2] it was 1 to 10 nM; in assay [3], at most 10 nM. For the same compound, in assay [4], the IC50 was at most 100 nM.

`COc1nc2nc(C(F)(F)c3ccc(F)cc3)nc(Nc3cc(C)[nH]n3)c2s1` [Example 39, 5-(difluoro(4-fluorophenyl)methyl)-2-methoxy-N-(5-methyl-1H-pyrazol-3-yl)thiazolo[4,5-d]pyrimidin-7-amine]: the dissociation constant (Kd) was 10 to 100 nM in assay [1], 1 to 10 nM in assay [2] and at most 10 nM in assay [3]. Further, the IC50 in assay [4] lay within 100 to 500 nM.

For the compound `Cc1cc(Nc2nc(C(F)(F)c3ccc(F)cc3)nc3nc(C#N)sc23)n[nH]1` [Example 40, 5-(difluoro(4-fluorophenyl)methyl)-7-(5-methyl-1H-pyrazol-3-ylamino)thiazolo[4,5-d]pyrimidine-2-carbonitrile], the Kd in assay [1] was 10 to 100 nM; in assay [2], 1 to 10 nM; in assay [3], at most 10 nM. The 50% inhibitory concentration (IC50) in assay [4] is above 500 nM.

As to `Cc1cc(Nc2nc(C(F)(F)c3ccc(F)cc3)nc3ncsc23)n[nH]1` [Example 41, 5-(difluoro(4-fluorophenyl)methyl)-N-(5-methyl-1H-pyrazol-3-yl)thiazolo[4,5-d]pyrimidin-7-amine], the figures for the Kd in assay [1], in assay [2] and in assay [3] were 10 to 100 nM, 1 to 10 nM and at most 10 nM, respectively. The IC50 in assay [4] lay within 100 to 500 nM.

Consider `CNc1nc2nc(C(F)(F)c3ccc(F)cc3)nc(Nc3cc(C)[nH]n3)c2s1` [Example 42, 5-(difluoro(4-fluorophenyl)methyl)-N2-methyl-N7-(5-methyl-1H-pyrazol-3-yl)thiazolo[4,5-d]pyrimidine-2,7-diamine], for which the figures for the Kd in assay [1], in assay [2] and in assay [3] were at most 10 nM, 1 to 10 nM and at most 10 nM, respectively. Also, in assay [4], the IC50 is 100 to 500 nM.

Take `CCn1ncc2c(Nc3cc(C)[nH]n3)nc(Sc3ccc(F)cc3)nc21` [Example 43, 1-ethyl-6-((4-fluorophenyl)thio)-N-(5-methyl-1H-pyrazol-3-yl)-1H-pyrazolo[3,4-d]pyrimidin-4-amine]: the dissociation constant Kd in assay [1] is above 100 nM; in assay [2] it was above 10 nM; in assay [3] it was 10 to 100 nM. In addition, the IC50 in assay [4] is 100 to 500 nM.

On to `Cc1cc(Nc2nc(C(F)(F)c3ccc(F)cn3)nc3nn(C4CCCC4)cc23)n[nH]1` [Example 44, 2-cyclopentyl-6-(difluoro(5-fluoropyridin-2-yl)methyl)-N-(5-methyl-1H-pyrazol-3-yl)-2H-pyrazolo[3,4-d]pyrimidin-4-amine], for which the Kd was at most 10 nM in assay [1], at most 1 nM in assay [2] and at most 10 nM in assay [3]. Further, the IC50 in assay [4] was at most 100 nM.
